How the values were obtained:
bedstraw = test: Test B pre/postemergence bedstraw; format: in vivo, Galium aparine
In short: (§1)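 Response is a visual 0-to-10 score relative to untreated plants, where 0 means no effect and 10 means complete control, taken twelve to sixteen days after application. Treatments went onto soil at planting and onto foliage of 1- to 4-leaf plants, using a surfactant-containing non-phytotoxic solvent.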

blackgrass = test: Test B pre/postemergence blackgrass; format: in vivo, Alopecurus myosuroides
In short: as §1

surinam grass = test: Test B pre/postemergence surinam grass; format: in vivo, Brachiaria decumbens
In short: as §1

cocklebur = test: Test B pre/postemergence cocklebur; format: in vivo, Xanthium strumarium
In short: as §1

crabgrass = test: Test B pre/postemergence crabgrass; format: in vivo, Digitaria sanguinalis
In short: as §1

giant foxtail = test: Test B pre/postemergence giant foxtail; format: in vivo, Setaria faberii
In short: as §1

morningglory = test: Test B pre/postemergence morningglory; format: in vivo, Ipomoea hederacea
In short: as §1

pigweed = test: Test B pre/postemergence pigweed; format: in vivo, Amaranthus retroflexus
In short: as §1

soybean = test: Test B pre/postemergence soybean; format: in vivo, Glycine max
In short: as §1

velvetleaf = test: Test B pre/postemergence velvetleaf; format: in vivo, Abutilon theophrasti
In short: as §1

wheat = test: Test B pre/postemergence wheat; format: in vivo, Triticum aestivum
In short: as §1

wild oat = test: Test B pre/postemergence wild oat; format: in vivo, Avena fatua
In short: as §1

purple nutsedge = test: Test B pre/postemergence purple nutsedge; format: in vivo, Cyperus rotundus
In short: as §1

rice = test: Test B flood test rice; format: in vivo, Oryza sativa
In short: (§2)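 Flood test on plants grown to the 2-leaf stage; treated plants kept in greenhouse twelve to sixteen days, then visually rated against controls on a 0 (no effect) to 10 (complete control) scale.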

smallflower flatsedge = test: Test B flood test smallflower flatsedge; format: in vivo, Cyperus difformis
In short: as §2

bamyardgrass = test: Test B flood test barnyardgrass; format: in vivo, Echinochloa crus-galli
In short: as §2

[1] = Postemergence, Rate 125 g/ha, scale of 0 to 10 where 0 is no effect and 10 is complete control
[2] = Preemergence, Rate 62 g/ha, scale 0 to 10 (0 no effect, 10 complete control)
[3] = Preemergence, Rate 125 g/ha, 0 is no effect, 10 is complete control
[4] = Preemergence, Rate 250 g/ha, scale 0 to 10, 0 is no effect, 10 is complete control
[5] = Preemergence, Rate 500 g/ha, scale 0 to 10 (0 no effect, 10 complete control)
[6] = Rate 62 g/ha, Postemergence, scale of 0 to 10 where 0 is no effect and 10 is complete control
[7] = Rate 250 g/ha, Postemergence, scale 0 to 10, 0 is no effect, 10 is complete control
[8] = Rate 500 g/ha, Postemergence, scale 0 to 10
[9] = Postemergence (flood test species), Rate 125 g/ha, scale of 0 to 10 where 0 is no effect and 10 is complete control
[10] = Rate 62 g/ha, Postemergence section, flood test species, scale of 0 to 10 where 0 is no effect and 10 is complete control
[11] = Rate 250 g/ha, Postemergence (flood test), scale 0 to 10, 0 is no effect, 10 is complete control
[12] = Rate 500 g/ha, listed under Postemergence (flood test species), scale 0 to 10

Question: Which results are given for `COc1ccccc1Cn1c(=O)on(C(=O)N(c2ccc(F)cc2)C(C)C)c1=O` [Compound 143]?
Answer: Bedstraw plant response rating (bedstraw; [1]): 6; Bedstraw plant response rating (bedstraw; [2]): 0; Bedstraw plant response rating (0 to 10 scale) (bedstraw; [3]): 0; Bedstraw plant response rating (bedstraw; [4]): 0; Bedstraw plant response rating (bedstraw; [5]): 0; Bedstraw plant response rating (bedstraw; [6]): 5; Plant response rating, Bedstraw (bedstraw; [7]): 6; Bedstraw plant response rating (bedstraw; Rate 500 g/ha, Postemergence, scale 0 to 10, 0 no effect, 10 complete control): 8; Blackgrass plant response rating (blackgrass; [1]): 3; Blackgrass plant response rating (blackgrass; [2]): 4; Blackgrass plant response rating (0 to 10 scale) (blackgrass; [3]): 5; Blackgrass plant response rating (blackgrass; [4]): 5; Blackgrass plant response rating (blackgrass; [5]): 6; Blackgrass plant response rating (blackgrass; [6]): 3; Plant response rating, Blackgrass (blackgrass; [7]): 5; Blackgrass plant response rating (blackgrass; [8]): 8; B. signalgrass plant response rating (surinam grass; [1]): 0; B. signalgrass plant response rating (surinam grass; [2]): 0; B. signalgrass plant response rating (0 to 10 scale) (surinam grass; [3]): 0; B. signalgrass plant response rating (surinam grass; [4]): 2; B. signalgrass plant response rating (surinam grass; [5]): 5; B. signalgrass plant response rating (surinam grass; [6]): 0; Plant response rating, B. signalgrass (surinam grass; [7]): 0; B. signalgrass plant response rating (surinam grass; Rate 500 g/ha, Postemergence, scale of 0 to 10 where 0 is no effect and 10 is complete control): 5; Cocklebur plant response rating (cocklebur; [1]): 3; Cocklebur plant response rating (cocklebur; [2]): 0; Cocklebur plant response rating (0 to 10 scale) (cocklebur; [3]): 0; Cocklebur plant response rating (cocklebur; [5]): 0; Cocklebur plant response rating (cocklebur; [6]): 1; Plant response rating, Cocklebur (cocklebur; [7]): 3; Cocklebur plant response rating (cocklebur; [8]): 4; Crabgrass plant response rating (crabgrass; [1]): 8; Crabgrass plant response rating (crabgrass; [2]): 3; Crabgrass plant response rating (0 to 10 scale) (crabgrass; [3]): 7; Crabgrass plant response rating (crabgrass; [4]): 8; Crabgrass plant response rating (crabgrass; [5]): 10; Crabgrass plant response rating (crabgrass; [6]): 1; Plant response rating, Crabgrass (crabgrass; [7]): 8; Crabgrass plant response rating (crabgrass; [8]): 9; Giant foxtail plant response rating (giant foxtail; [1]): 2; Giant foxtail plant response rating (giant foxtail; [2]): 3; Giant foxtail plant response rating (0 to 10 scale) (giant foxtail; [3]): 9; Giant foxtail plant response rating (giant foxtail; [4]): 9; Giant foxtail plant response rating (giant foxtail; [5]): 10; Giant foxtail plant response rating (giant foxtail; [6]): 0; Plant response rating, Giant foxtail (giant foxtail; [7]): 5; Giant foxtail plant response rating (giant foxtail; [8]): 7; Morningglory plant response rating (morningglory; [1]): 6; Morningglory plant response rating (morningglory; [2]): 0; Morningglory plant response rating (0 to 10 scale) (morningglory; [3]): 0; Morningglory plant response rating (morningglory; [4]): 0; Morningglory plant response rating (morningglory; [5]): 0; Morningglory plant response rating (morningglory; [6]): 3; Plant response rating, Morningglory (morningglory; [7]): 8; Morningglory plant response rating (morningglory; [8]): 8; Redroot pigweed plant response rating (pigweed; [1]): 5; Redroot pigweed plant response rating (0 to 10 scale) (pigweed; [3]): 0; Redroot pigweed plant response rating (pigweed; [4]): 4; Redroot pigweed plant response rating (pigweed; [5]): 10; Redroot pigweed plant response rating (pigweed; [6]): 3; Plant response rating, Redroot pigweed (pigweed; [7]): 5; Redroot pigweed plant response rating (pigweed; [8]): 6; Soybean plant response rating (soybean; [1]): 3; Soybean plant response rating (soybean; [2]): 0; Soybean plant response rating (0 to 10 scale) (soybean; [3]): 0; Soybean plant response rating (soybean; [4]): 0; Soybean plant response rating (soybean; [5]): 1; Soybean plant response rating (soybean; [6]): 3; Plant response rating, Soybean (soybean; [7]): 4; Soybean plant response rating (soybean; [8]): 5; Velvetleaf plant response rating (velvetleaf; [1]): 2; Velvetleaf plant response rating (velvetleaf; [2]): 0; Velvetleaf plant response rating (0 to 10 scale) (velvetleaf; [3]): 0; Velvetleaf plant response rating (velvetleaf; [4]): 0; Velvetleaf plant response rating (velvetleaf; [5]): 0; Velvetleaf plant response rating (velvetleaf; [6]): 2; Plant response rating, Velvetleaf (velvetleaf; [7]): 2; Velvetleaf plant response rating (velvetleaf; [8]): 2; Wheat plant response rating (wheat; [1]): 0; Wheat plant response rating (wheat; [2]): 0; Wheat plant response rating (0 to 10 scale) (wheat; [3]): 0; Wheat plant response rating (wheat; [4]): 0; Wheat plant response rating (wheat; [5]): 0; Wheat plant response rating (wheat; [6]): 0; Plant response rating, Wheat (wheat; [7]): 0; Wheat plant response rating (wheat; [8]): 0; Wild oats plant response rating (wild oat; [1]): 0; Wild oats plant response rating (wild oat; [2]): 0; Wild oats plant response rating (0 to 10 scale) (wild oat; [3]): 5; Wild oats plant response rating (wild oat; [4]): 5; Wild oats plant response rating (wild oat; [5]): 5; Wild oats plant response rating (wild oat; [6]): 0; Plant response rating, Wild oats (wild oat; [7]): 0; Wild oats plant response rating (wild oat; [8]): 0; Nutsedge plant response rating (purple nutsedge; [1]): 0; Nutsedge plant response rating (purple nutsedge; [2]): 0; Nutsedge plant response rating (0 to 10 scale) (purple nutsedge; [3]): 0; Nutsedge plant response rating (purple nutsedge; [4]): 0; Nutsedge plant response rating (purple nutsedge; [5]): 0; Nutsedge plant response rating (purple nutsedge; [6]): 0; Plant response rating, Nutsedge (purple nutsedge; [7]): 0; Nutsedge plant response rating (purple nutsedge; [8]): 0; Rice plant response rating (rice; [9]): 0; Rice plant response rating (rice; [10]): 0; Plant response rating, Rice (rice; [11]): 2; Rice plant response rating (rice; [12]): 4; S. Flatsedge plant response rating (smallflower flatsedge; [9]): 0; S. Flatsedge plant response rating (smallflower flatsedge; [10]): 0; Plant response rating, S. Flatsedge (smallflower flatsedge; [11]): 2; S. Flatsedge plant response rating (smallflower flatsedge; [12]): 8; Barnyardgrass plant response rating (bamyardgrass; [9]): 8; Barnyardgrass plant response rating (bamyardgrass; [10]): 0; Plant response rating, Barnyardgrass (bamyardgrass; [11]): 8; Barnyardgrass plant response rating (bamyardgrass; Rate 500 g/ha, listed under Postemergence (flood test species), scale 0 to 10, 0 no effect, 10 complete control): 10

Source: patent publication US6737383B1, “Herbicidal oxadiazolidines” (priority 1999, dated 2004)
